Reference: EP2316926B1, “Enantioselective production of alpha-hydroxy carbonyl compounds” (priority 2009, dated 2011)
Where “and” joins values, the source holds several entries; their conditions need not be identical. Identical values can stand only once. Like-named read-outs stand apart in the source and are kept apart here.

Legend:
Assay type in all cases: biochemical
Gox0644 [1] = molecular target: T1, Gox0644 (Gluconobacter oxydans, UniProt Q5FT75); assay: NADPH-dependent α-ketocarbonyl reductase activity assay (rate of decrease of NADPH at 340 nm); conditions: for reduction by Gox0644: result in words; for Gox0644 U/mg*: Table 3, 10 mM substrate, 40 mM K-phosphate buffer pH 7.0, 0.05 mM NAD(P)H, 30 °C, U/mg = µmol x min^-1 x mg protein^-1; for Specific Activity (U/mg)*: Table 4, cofactor NADPH, U/mg = µmol/mg·min
Protocol: Reactions were induced by addition of enzyme or substrate. One unit was defined as the amount of enzyme activity catalyzing the conversion of 1 µmol of pyridine nucleotide per min at 30 °C. NMR Analysis of Biotransformation Products: Biotransformations were extracted with equal volumes of CDCl3. and ^13C NMR spectra were recorded on a Bruker Avance 300 DPX spectrometer operating at 300 MHz for ^1H NMR and at 75 MHz for ^13C NMR, respectively.
Reactions were induced by addition of enzyme or substrate. One unit of activity was defined as the amount of enzyme activity catalyzing the conversion of 1 µmol of pyridine nucleotide per min at 30 °C.
The standard reaction mixture (1 ml) for the reduction reactions of substrates contained 10 mM substrate, 40 mM potassium phosphate buffer (K-phosphate buffer) pH 7.0, 0.05 mM NAD(P)H, and the enzyme unless otherwise noted. Reactions were induced by addition of enzyme or substrate. One unit of activity was defined as the amount of enzyme activity catalyzing the conversion of 1 µmol of pyridine nucleotide per min at 30 °C. […] Table 3: Enzymatic activities with α-diketones, α-ketoaldehydes and α-ketoesters

Gox1615 = molecular target: T2, Gox1615 (Gluconobacter oxydans, UniProt Q5FQJ0); assay: as above; conditions: for Gox1615 U/mg*: Table 3, 10 mM substrate, 40 mM K-phosphate buffer pH 7.0, 0.05 mM NAD(P)H, 30 °C, U/mg = µmol x min^-1 x mg protein^-1; for Specific Activity (U/mg)*: Table 5, cofactor NADPH, U/mg = µmol/mg·min
T2 sequence (Q5FQJ0 1-332): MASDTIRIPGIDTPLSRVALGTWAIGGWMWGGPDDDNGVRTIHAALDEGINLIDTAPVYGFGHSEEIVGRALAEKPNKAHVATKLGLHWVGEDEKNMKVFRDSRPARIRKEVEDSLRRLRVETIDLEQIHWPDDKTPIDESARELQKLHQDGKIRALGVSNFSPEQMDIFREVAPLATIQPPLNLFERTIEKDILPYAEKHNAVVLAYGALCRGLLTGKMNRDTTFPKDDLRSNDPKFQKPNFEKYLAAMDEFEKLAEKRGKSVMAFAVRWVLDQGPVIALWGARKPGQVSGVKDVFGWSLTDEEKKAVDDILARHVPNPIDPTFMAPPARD
Protocol: Measurement of enzyme activity: NADPH-dependent α-ketocarbonyl reductases were assayed by a routine method used for NAD(P)-linked enzymes by recording the rate of decrease of NADPH at 340 nm (ε = 6.22 mM^-1 x cm^-1)) with substrates at 30 °C. The reaction mixture (1 ml) for reduction of α-ketocarbonyl substrates contained 10 mM substrate, 40 mM potassium phosphate buffer pH 7.0, 0.025 mM NAD(P)H and the enzyme. Reactions were induced by addition of enzyme or substrate. One unit was defined as the amount of enzyme activity catalyzing the conversion of 1 µmol of pyridine nucleotide per min at 30 °C. NMR Analysis of Biotransformation Products: Biotransformations were extracted with equal volumes of CDCl3. and ^13C NMR spectra were recorded on a Bruker Avance 300 DPX spectrometer operating at 300 MHz for ^1H NMR and at 75 MHz for ^13C NMR, respectively. Spectra were processed using Bruker TonSpin 1.3 for Windows software and calibrated to the residual solvent peak of CDCl3 (δH = 7.26 / δC = 77.0).
NADPH-dependent α-ketocarbonyl reductases were assayed by a routine method used for NAD(P)-linked enzymes by recording the rate of decrease of NADPH at 340 nm (ε = 6.22 mM^-1.cm^-1) with substrates at 30 °C. The reaction mixture (1 ml) for reduction of α-ketocarbonyl substrates contained 10 mM substrate, 40 mM potassium phosphate buffer pH 7.0, 0.025 mM NADPH, and the enzyme. Reactions were induced by addition of enzyme or substrate. One unit of activity was defined as the amount of enzyme activity catalyzing the conversion of 1 µmol of pyridine nucleotide per min at 30 °C.
Purified NAD(P)-dependent oxidoreductases were assayed at 30 °C by a routine method used for NAD(P)-linked enzymes by recording the rate of decrease of NAD(P)H at 340 nm (ε = 6.22 mM^-1˙cm^-1) with substrates capable of reduction reactions. The standard reaction mixture (1 ml) for the reduction reactions of substrates contained 10 mM substrate, 40 mM potassium phosphate buffer (K-phosphate buffer) pH 7.0, 0.05 mM NAD(P)H, and the enzyme unless otherwise noted. Reactions were induced by addition of enzyme or substrate. One unit of activity was defined as the amount of enzyme activity catalyzing the conversion of 1 µmol of pyridine nucleotide per min at 30 °C. Measurement of the protein content was performed by the method of Bradford (Bradford M.M., Anal. Biochem. 72:248-254 (1976)). Table 3: Enzymatic activities with α-diketones, α-ketoaldehydes and α-ketoesters

Gox1122 = molecular target: T3, Gox1122 (Gluconobacter oxydans, UniProt Q5FRV6); assay: Aldehyde dehydrogenase activity and kinetic constants
T3 sequence (Q5FRV6 1-463): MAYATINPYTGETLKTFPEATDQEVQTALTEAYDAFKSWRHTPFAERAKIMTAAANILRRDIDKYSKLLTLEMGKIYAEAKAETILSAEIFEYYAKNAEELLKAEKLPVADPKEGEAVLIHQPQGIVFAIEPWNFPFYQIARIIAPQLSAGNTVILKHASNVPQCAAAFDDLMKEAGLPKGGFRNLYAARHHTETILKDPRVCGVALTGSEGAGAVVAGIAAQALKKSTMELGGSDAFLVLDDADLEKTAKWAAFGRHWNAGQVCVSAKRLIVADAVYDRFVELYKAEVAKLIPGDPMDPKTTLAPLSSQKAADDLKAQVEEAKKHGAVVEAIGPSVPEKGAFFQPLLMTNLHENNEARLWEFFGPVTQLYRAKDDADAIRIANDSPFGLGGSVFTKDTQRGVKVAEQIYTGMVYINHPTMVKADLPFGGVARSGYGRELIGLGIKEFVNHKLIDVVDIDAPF
Protocol: The enzyme is used in a combined enzymatic reaction between the NADPH-dependent reductases (see above) that form α-hydroxy carbonyl compounds.
Determination of pH and temperature optima and enzyme kinetics: The optimum pH for enzyme activities was determined by a modified method of Salusjärvi, T. et al., Appl. Microbiol. Biotechnol. 65:306-314 (2004) using the following buffer system (50 mM final concentration each): sodium acetate pH 4.5 - 6.5, potassium phosphate pH 6.5 - 8.0, Tris-HCl pH 8.0 - 10. Temperature optima for the biocatalysts were determined under standard reaction conditions at temperatures ranging from 20 - 80 °C. The Michaelis constant (Km) for the proteins was determined from purified enzyme by Lineweaver-Burk plots. Assays were performed at optimum pH for each enzyme and at 30 °C using the best substrate and a targeted substrate. The Km for each substrate was calculated using concentrations of 0.0025 to 10 mM, and the Km NAD(P)H and NAD(P) was calculated using concentrations of 0.01 to 0.5 mM
2.9 Kinetic parameters of the keto carbonyl reductases: Kinetic constants were determined from purified enzyme by Lineweaver-Burk plots. The Km and Vmax values for the substrates were calculated using concentrations of 0.025 to 10 mM. […] 8.

Gox0644 [2] = molecular target: T1, Gox0644; assay: Acetaldehyde tolerance test
From the text: The products derived from the α-diketone and α-ketoaldehyde substrate reactions were generated according to the cofactor regeneration protocol. This method overcomes the dependence of the enzymes on reduced cofactor by coupling the substrate reactions of Gox0644 and Gox1615, with the cofactor NADP reduction reaction based on the acetaldehyde oxidoreductase Gox1122 using acetaldehyde. […] In both the reactions with phenylglyoxal and 2,3-pentanedione, Gox0644 activity remained similar to the control reaction consisting of a reaction without acetaldehyde (Tab. 9/10). […] In the reaction with 2,3-pentanedione there was a slight decrease of about 20% from the control, however, the activity levels were still very high at 50.2 U/mg. […] Table 9: Gox0644 acetaldehyde tolerance tests with phenylglyoxal

Compound: CC(=O)C(C)O (stereo not shown) [acetoin]
- reduction by Gox0644 (Gox0644 [1]): not reduced

Compound: CC(=O)CC(C)=O [acetylacetone]
- reduction by Gox0644 (Gox0644 [1]): not reduced

Compound: CC(C)=O [acetone]
- reduction by Gox0644 (Gox0644 [1]): not reduced

Compound: CCOC(=O)C(C)=O [ethyl pyruvate]
- Gox1615 U/mg* (Gox1615): 1.2 U/mg
- Specific Activity (U/mg)* (Gox1615): 1.2 U/mg
- Gox0644 U/mg* (Gox0644 [1]): 92.8 U/mg
- activity (Gox0644 [1]; substrates showing the highest activities): 93 U/mg protein

Compound: CC(=O)C(C)=O [2,3-butanedione]
- Specific Activity (U/mg)* (Gox1615): 6.0 U/mg
- Specific Activity (U/mg)* (Gox0644 [1]): 60.0 U/mg

Compound: CC=O [acetaldehyde]
- Vmax (Gox1122; 40 mM KPB at optimal pH and 30 °C): 196 µmol/min x mg
- Km (Gox1122; 40 mM KPB at optimal pH and 30 °C, read-out: Km): 200 µM
- apparent Vmax value (Gox1122; fixed 0.5 mM NADP, acetaldehyde as the varied substrate): 196 U/mg protein
- Km (Gox1122; several concentrations of the aldehyde from 0.0025 to 10 mM, read-out: Km value): 255 µM
- Gox0644 activity (Gox0644 [2]; substrate 2,3-pentanedione, 10mM acetaldehyde, control without acetaldehyde 65.7 U/mg): 67.9 U/mg
- Gox0644 activity (Gox0644 [2]; substrate 2,3-pentanedione, 30mM acetaldehyde, control without acetaldehyde 65.7 U/mg): 59.5 U/mg
- Gox0644 activity (Gox0644 [2]; substrate 2,3-pentanedione, 50mM acetaldehyde, control without acetaldehyde 65.7 U/mg): 50.2 U/mg and 50.1 U/mg
- Gox0644 activity (Gox0644 [2]; substrate phenylglyoxal, 10mM acetaldehyde, control without acetaldehyde 38.5 U/mg): 29.6 U/mg
- Gox0644 activity (Gox0644 [2]; substrate phenylglyoxal, 30mM acetaldehyde, control without acetaldehyde 38.5 U/mg): 37.1 U/mg
- Gox0644 activity (Gox0644 [2]; substrate phenylglyoxal, 50mM acetaldehyde, control without acetaldehyde 38.5 U/mg): 39.3 U/mg
- Gox0644 activity (Gox0644 [2]; substrate phenylglyoxal, 100mM acetaldehyde, control without acetaldehyde 38.5 U/mg): 31.2 U/mg
- inhibition at 100000 µM (Gox0644 [2]; substrate phenylglyoxal, 100 mM of acetaldehyde, versus control, read-out: decrease in activity): ≤ 20%

Compound: NC(=O)c1ccc[n+]([C@@H]2O[C@H](COP(=O)(O)OP(=O)(O)OC[C@H]3O[C@@H](n4cnc5c(N)ncnc54)[C@H](OP(=O)(O)O)[C@@H]3O)[C@@H](O)[C@H]2O)c1 [NADP]
- Km (Gox1122; cofactor NADP, read-out: apparent Km value): 73 µM

Compound: O=C(C(=O)c1ccccc1)c1ccccc1 [benzil]
- Specific Activity (U/mg)* (Gox0644 [1]): 14.0 U/mg

Compound: CC(=O)O [acetic acid]
- reverse reduction reaction (Gox1122; using NADPH, pH range of 4-10): No reverse reduction reaction

Compound: O=CC=O [glyoxal]
- Specific Activity (U/mg)* (Gox1615): 5 U/mg
- Specific Activity (U/mg)* (Gox0644 [1]): 1.1 U/mg

Compound: CCC(=O)C(=O)O [2-oxo butyric acid]
- reduction by Gox0644 (Gox0644 [1]): not reduced

Compound: CCC(=O)C(=O)CC [3,4-hexanedione]
- Gox1615 U/mg* (Gox1615): 2.0 U/mg
- Specific Activity (U/mg)* (Gox1615): 2.0 U/mg
- Gox0644 U/mg* (Gox0644 [1]): 7.3 U/mg

Compound: O=C(O)C(=O)[C@@H](O)[C@H](O)C(=O)CO [2,5-diketogluconate]
- reduction by Gox0644 (Gox0644 [1]): reduced

Compound: CCCC(=O)C(C)=O [2,3-hexanedione]
- Gox1615 U/mg* (Gox1615): 6.5 U/mg
- Specific Activity (U/mg)* (Gox1615): 6.5 U/mg
- Gox0644 U/mg* (Gox0644 [1]): 50.1 U/mg

Compound: CC(=O)C(=O)OCCC(C)C [isoamyl pyruvate]
- Gox1615 U/mg* (Gox1615): 4.7 U/mg
- Specific Activity (U/mg)* (Gox1615): 4.7 U/mg
- Gox0644 U/mg* (Gox0644 [1]): 63.1 U/mg
